Measurements as given in patent publication US8329904B2, “Azacyclic derivatives” (Hoffmann-La Roche Inc., priority 2009, dated 2012).
pIC50: −log10 of the molar value.

biological target: T1, human HSL (Homo sapiens, UniProt Q05469); assay: Human Hormone-Sensitive Lipase (HSL) Enzyme Inhibition Assay; format: biochemical; conditions: colorimetric assay, 2,3-dimercapto-1-propanol tributyrate (DMPT) substrate, 37° C. for 20 minutes, absorbance at 405 nm; read-out: HSL hum IC50
T1 construct: overlapping PCR to generate a full length human HSL ORF with a 3′-His6 tag; His6 (C); made in house; host or cells: High 5 insect cells (baculovirus, pFast-BAC)
T1 sequence (Q05469 1-1076): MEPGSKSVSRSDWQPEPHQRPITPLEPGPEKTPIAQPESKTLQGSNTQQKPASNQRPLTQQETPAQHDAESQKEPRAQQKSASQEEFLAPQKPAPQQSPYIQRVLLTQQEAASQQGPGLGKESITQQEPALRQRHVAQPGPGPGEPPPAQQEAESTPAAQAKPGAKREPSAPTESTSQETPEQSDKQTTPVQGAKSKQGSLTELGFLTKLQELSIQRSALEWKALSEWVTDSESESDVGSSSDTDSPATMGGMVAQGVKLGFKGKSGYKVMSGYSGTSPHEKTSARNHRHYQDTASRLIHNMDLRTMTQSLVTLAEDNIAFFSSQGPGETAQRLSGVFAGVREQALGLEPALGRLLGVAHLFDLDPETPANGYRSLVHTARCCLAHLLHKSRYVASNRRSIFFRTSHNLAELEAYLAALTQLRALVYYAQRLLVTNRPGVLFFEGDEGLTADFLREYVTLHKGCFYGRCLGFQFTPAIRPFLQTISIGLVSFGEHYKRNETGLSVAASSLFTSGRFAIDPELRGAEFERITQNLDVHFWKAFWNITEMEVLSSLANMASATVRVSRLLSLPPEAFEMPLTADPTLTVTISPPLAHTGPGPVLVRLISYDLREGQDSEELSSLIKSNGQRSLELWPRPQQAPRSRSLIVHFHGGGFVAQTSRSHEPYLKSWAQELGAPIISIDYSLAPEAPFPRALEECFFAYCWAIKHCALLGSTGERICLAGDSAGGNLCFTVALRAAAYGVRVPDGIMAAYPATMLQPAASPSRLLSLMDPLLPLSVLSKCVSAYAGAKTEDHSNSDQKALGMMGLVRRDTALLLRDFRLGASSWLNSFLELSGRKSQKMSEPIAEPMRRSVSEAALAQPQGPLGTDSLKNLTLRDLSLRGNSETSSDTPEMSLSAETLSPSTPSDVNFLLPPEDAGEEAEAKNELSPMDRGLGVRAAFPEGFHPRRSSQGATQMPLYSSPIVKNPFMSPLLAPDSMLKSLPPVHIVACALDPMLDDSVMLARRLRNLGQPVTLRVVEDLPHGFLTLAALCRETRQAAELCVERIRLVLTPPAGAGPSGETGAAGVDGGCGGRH
Outline: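 Colorimetric thioester hydrolysis: compounds in DMSO series mixed with DMPT (1.5 mM) in MOPS pH 7.2 with BSA, then baculovirus-expressed His6-tagged full-length human HSL added, 37° C, 20 min. DTNB plus detergents added, 15 min room temperature, absorbance at 405 nm.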

`O=C1N(c2ccc(OC(F)(F)F)cc2)CCC12CCN(S(=O)(=O)/C=C1/CCCO1)CC2` [Example 213, 8-[Dihydro-furan-(2Z)-ylidenemethanesulfonyl]-2-(4-trifluoromethoxy-phenyl)-2,8-diaza-spiro[4.5]decan-1-one] and `O=C1N(c2ccc(OC(F)(F)F)cc2)CCC12CCN(S(=O)(=O)CC1CCCO1)CC2` (stereo not drawn) [Example 214, 8-(Tetrahydro-furan-2-ylmethanesulfonyl)-2-(4-trifluoromethoxy-phenyl)-2,8-diaza-spiro[4.5]decan-1-one] are within 0.2 log units of each other in pIC50: 6.82 for the first, 7.00 for the second.

`CCC(C)(O)CC(=O)N1CCC2(CC1)CCN(c1ccc(OC(F)(F)F)cc1)C2=O` (stereo not drawn) [Example 215, 8-(3-Hydroxy-3-methyl-pentanoyl)-2-(4-trifluoromethoxy-phenyl)-2,8-diaza-spiro[4.5]decan-1-one] and `O=C(CCl)N1CCC2(CC1)CCN(c1ccc(OC(F)(F)F)cc1)C2=O` [Example 225, 8-(2-Chloro-acetyl)-2-(4-trifluoromethoxy-phenyl)-2,8-diaza-spiro[4.5]decan-1-one] are within 0.2 log units of each other in pIC50: 6.33 for the first, 6.49 for the second.

Compared with `O=C(CC1CCC1)N1CCC2(CC1)CCN(c1ccc(OC(F)(F)F)cc1)C2=O` [Example 216, 8-(2-Cyclobutyl-acetyl)-2-(4-trifluoromethoxy-phenyl)-2,8-diaza-spiro[4.5]decan-1-one], `O=C(COC1CCCC1)N1CCC2(CC1)CCN(c1ccc(OC(F)(F)F)cc1)C2=O` [Example 226, 8-(2-Cyclopentyloxy-acetyl)-2-(4-trifluoromethoxy-phenyl)-2,8-diaza-spiro[4.5]decan-1-one] is 0.70 log units higher in pIC50: 6.60 for the first, 7.30 for the second. The second is the more potent here.

Going from `CC(C)OCC(=O)N1CCC2(CC1)CCN(c1ccc(OC(F)(F)F)cc1)C2=O` [Example 217, 8-(2-Isopropoxy-acetyl)-2-(4-trifluoromethoxy-phenyl)-2,8-diaza-spiro[4.5]decan-1-one] to `CC(C)(C)OCC(=O)N1CCC2(CC1)CCN(c1ccc(OC(F)(F)F)cc1)C2=O` [Example 218, 8-(2-tert-Butoxy-acetyl)-2-(4-trifluoromethoxy-phenyl)-2,8-diaza-spiro[4.5]decan-1-one], the pIC50 rises from 6.66 to 7.00 (0.34 log units). The second is the more potent here.

Compared with `O=C(N1CCC2(CC1)CCN(c1ccc(OC(F)(F)F)cc1)C2=O)C1(O)CC1` [Example 219, 8-(1-Hydroxy-cyclopropanecarbonyl)-2-(4-trifluoromethoxy-phenyl)-2,8-diaza-spiro[4.5]decan-1-one], `Cc1nc(C(=O)N2CCC3(CC2)CCN(c2ccc(OC(F)(F)F)cc2)C3=O)cs1` [Example 224, 8-(2-Methyl-thiazole-4-carbonyl)-2-(4-trifluoromethoxy-phenyl)-2,8-diaza-spiro[4.5]decan-1-one] is 0.46 log units lower in pIC50: 6.55 for the first, 6.09 for the second. The first is the more potent here.

`O=C(COCc1ccccc1)N1CCC2(CC1)CCN(c1ccc(OC(F)(F)F)cc1)C2=O` [Example 220, 8-(2-Benzyloxy-acetyl)-2-(4-trifluoromethoxy-phenyl)-2,8-diaza-spiro[4.5]decan-1-one] and `O=C(COc1ccccc1)N1CCC2(CC1)CCN(c1ccc(OC(F)(F)F)cc1)C2=O` [Example 221, 8-(2-Phenoxy-acetyl)-2-(4-trifluoromethoxy-phenyl)-2,8-diaza-spiro[4.5]decan-1-one] are within 0.2 log units of each other in pIC50: 7.10 for the first, 7.22 for the second.

`CC(C(=O)N1CCC2(CC1)CCN(c1ccc(OC(F)(F)F)cc1)C2=O)c1ccccc1` (stereo not drawn) [Example 222, 8-(2-Phenyl-propionyl)-2-(4-trifluoromethoxy-phenyl)-2,8-diaza-spiro[4.5]decan-1-one] and `CCC(C(=O)N1CCC2(CC1)CCN(c1ccc(OC(F)(F)F)cc1)C2=O)c1ccccc1` (stereo not drawn) [Example 223, 8-(2-Phenyl-butyryl)-2-(4-trifluoromethoxy-phenyl)-2,8-diaza-spiro[4.5]decan-1-one] are within 0.2 log units of each other in pIC50: 7.00 for the first, 6.96 for the second.

`O=C1N(c2ccc(C(F)(F)F)c(Cl)c2)CCC12CCN(S(=O)(=O)c1ccccc1Cl)CC2` [Example 227, 8-(2-Chloro-benzenesulfonyl)-2-(3-chloro-4-trifluoromethyl-phenyl)-2,8-diaza-spiro[4.5]decan-1-one] and `O=C1N(c2ccc3c(c2)OC(F)(F)O3)CCC12CCN(S(=O)(=O)c1ccccc1Cl)CC2` [Example 228, 8-(2-Chloro-benzenesulfonyl)-2-(2,2-difluoro-benzo[1,3]-dioxol-5-yl)-2,8-diaza-spiro[4.5]decan-1-one] are within 0.2 log units of each other in pIC50: 7.10 for the first, 7.22 for the second.

Going from `O=C1N(c2ccc(C3(O)COC3)cc2)CCC12CCN(S(=O)(=O)c1ccccc1Cl)CC2` [Example 229, 8-(2-Chloro-benzenesulfonyl)-2-[4-(3-hydroxy-oxetan-3-yl)-phenyl]-2,8-diaza-spiro[4.5]decan-1-one] to `O=C1N(c2ccc(C3(F)COC3)cc2)CCC12CCN(S(=O)(=O)c1ccccc1Cl)CC2` [Example 230, 8-(2-Chloro-benzenesulfonyl)-2-[4-(3-fluoro-oxetan-3-yl)-phenyl]-2,8-diaza-spiro[4.5]decan-1-one], the pIC50 rises from 6.62 to 7.52 (0.90 log units).

Going from `O=C1N(c2ccc(C3(O)CCC3)cc2)CCC12CCN(S(=O)(=O)c1ccccc1Cl)CC2` [Example 231, 8-(2-Chloro-benzenesulfonyl)-2-[4-(1-hydroxy-cyclobutyl)-phenyl]-2,8-diaza-spiro[4.5]decan-1-one] to `O=C1N(CCc2ccc(F)cc2)CCC12CCN(S(=O)(=O)c1ccccc1Cl)CC2` [Example 239, 8-(2-Chloro-benzenesulfonyl)-2-[2-(4-fluoro-phenyl)-ethyl]-2,8-diaza-spiro[4.5]decan-1-one], the pIC50 falls from 7.70 to 7.22 (0.48 log units). The first is the more potent here.

First: Cc1cc(CS(=O)(=O)N2CCC3(CCN(c4ccc(OC(F)(F)F)cc4)C3=O)CC2)no1 [Example 232, 8-(5-Methyl-isoxazol-3-ylmethanesulfonyl)-2-(4-trifluoromethoxy-phenyl)-2,8-diaza-spiro[4.5]decan-1-one]
Second: CC(C)c1cc(CS(=O)(=O)N2CCC3(CCN(c4ccc(OC(F)(F)F)cc4)C3=O)CC2)on1 [Example 233, 8-(3-Isopropyl-isoxazol-5-ylmethanesulfonyl)-2-(4-trifluoromethoxy-phenyl)-2,8-diaza-spiro[4.5]decan-1-one]
The pIC50 of the first is 0.35 log units higher: 7.05 for the first, 6.70 for the second. The first is the more potent here.

First: COC(=O)c1cccc(C)c1S(=O)(=O)N1CCC2(CCN(c3ccc(OC(F)(F)F)cc3)C2=O)CC1 [Example 234, 3-Methyl-2-[1-oxo-2-(4-trifluoromethoxy-phenyl)-2,8-diaza-spiro[4.5]decane-8-sulfonyl]-benzoic acid methyl ester]
Second: COc1ccc(CCN2CCC3(CCN(S(=O)(=O)c4ccccc4Cl)CC3)C2=O)cc1 [Example 240, 8-(2-Chloro-benzenesulfonyl)-2-[2-(4-methoxy-phenyl)-ethyl]-2,8-diaza-spiro[4.5]decan-1-one]
The pIC50 of the first is 0.40 log units lower: 6.82 for the first, 7.22 for the second. The second is the more potent here.

First: O=C1N(Cc2cccc(Cl)c2)CCC12CCN(S(=O)(=O)c1ccccc1Cl)CC2 [Example 235, 8-(2-Chloro-benzenesulfonyl)-2-(3-chloro-benzyl)-2,8-diaza-spiro[4.5]decan-1-one]
Second: O=C1N(CCc2ccccc2Cl)CCC12CCN(S(=O)(=O)c1ccccc1Cl)CC2 [Example 242, 8-(2-Chloro-benzenesulfonyl)-2-[2-(2-chloro-phenyl)-ethyl]-2,8-diaza-spiro[4.5]decan-1-one]
The pIC50 of the first is 0.28 log units lower: 6.40 for the first, 6.68 for the second. The second is the more potent here.

Going from `O=C1N(CCc2ccccc2)CCC12CCN(S(=O)(=O)c1ccccc1Cl)CC2` [Example 236, 8-(2-Chloro-benzenesulfonyl)-2-phenethyl-2,8-diaza-spiro[4.5]decan-1-one] to `O=C1N(CCCc2ccccc2)CCC12CCN(S(=O)(=O)c1ccccc1Cl)CC2` [Example 241, 8-(2-Chloro-benzenesulfonyl)-2-(3-phenyl-propyl)-2,8-diaza-spiro[4.5]decan-1-one], the pIC50 falls from 7.30 to 7.05 (0.25 log units). The first is the more potent here.

Compared with `CCc1ccc(CCN2CCC3(CCN(S(=O)(=O)c4ccccc4Cl)CC3)C2=O)cc1` [Example 237, 8-(2-Chloro-benzenesulfonyl)-2-[2-(4-ethyl-phenyl)-ethyl]-2,8-diaza-spiro[4.5]decan-1-one], `CC(C)(C)c1ccc(CCN2CCC3(CCN(S(=O)(=O)c4ccccc4Cl)CC3)C2=O)cc1` [Example 238, 2-[2-(4-tert-Butyl-phenyl)-ethyl]-8-(2-chloro-benzenesulfonyl)-2,8-diaza-spiro[4.5]decan-1-one] is 0.40 log units lower in pIC50: 7.40 for the first, 7.00 for the second. The first is the more potent here.
